Structures can show the parent of a compound that is named as a salt.
Experiments:
[1] = biological target: T1, glycine transporter-2 (GlyT-2) (Homo sapiens, UniProt Q9Y345); experiment: [14C]glycine uptake assay in HEK-GlyT-2 transfected cells; assay type: cell-based; settings: HEK-GlyT-2 cells
T1 construct: expressed in transfected cells
T1 sequence (Q9Y345 1-797): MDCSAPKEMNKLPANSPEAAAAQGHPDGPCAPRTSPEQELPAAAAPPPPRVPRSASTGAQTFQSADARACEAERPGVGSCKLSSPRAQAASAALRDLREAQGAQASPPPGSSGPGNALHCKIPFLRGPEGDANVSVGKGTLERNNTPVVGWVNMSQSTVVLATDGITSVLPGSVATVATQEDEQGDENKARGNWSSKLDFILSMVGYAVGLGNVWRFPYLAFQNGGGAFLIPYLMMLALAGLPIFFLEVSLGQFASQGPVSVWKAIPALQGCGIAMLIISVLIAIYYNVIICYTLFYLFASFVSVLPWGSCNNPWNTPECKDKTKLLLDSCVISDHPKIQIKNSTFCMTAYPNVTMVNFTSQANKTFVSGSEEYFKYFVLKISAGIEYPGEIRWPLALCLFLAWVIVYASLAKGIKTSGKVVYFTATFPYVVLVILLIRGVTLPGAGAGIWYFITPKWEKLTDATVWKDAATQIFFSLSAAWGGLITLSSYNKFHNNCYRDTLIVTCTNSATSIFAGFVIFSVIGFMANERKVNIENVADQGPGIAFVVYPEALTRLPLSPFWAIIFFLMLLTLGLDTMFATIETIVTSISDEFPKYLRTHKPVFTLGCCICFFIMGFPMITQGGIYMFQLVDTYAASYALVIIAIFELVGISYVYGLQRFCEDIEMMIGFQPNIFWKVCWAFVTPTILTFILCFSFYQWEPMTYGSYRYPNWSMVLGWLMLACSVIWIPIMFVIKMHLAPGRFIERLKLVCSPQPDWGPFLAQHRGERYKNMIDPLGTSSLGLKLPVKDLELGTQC

[2] = biological target: T2, glycine transporter-1 (GlyT-1) (Homo sapiens, UniProt P48067); experiment: [14C]glycine uptake assay in JAR cells endogenously expressing GlyT-1 (scintillation proximity); assay type: cell-based; settings: JAR cells, [14C]glycine 5 μM, 3 hour incubation; read-out: GlyT-1 IC50
T2 construct: JAR cells (ATCC#HTB-144), which endogenously express GlyT-1; host or cells: JAR human choriocarcinoma cells
T2 sequence (P48067 1-706): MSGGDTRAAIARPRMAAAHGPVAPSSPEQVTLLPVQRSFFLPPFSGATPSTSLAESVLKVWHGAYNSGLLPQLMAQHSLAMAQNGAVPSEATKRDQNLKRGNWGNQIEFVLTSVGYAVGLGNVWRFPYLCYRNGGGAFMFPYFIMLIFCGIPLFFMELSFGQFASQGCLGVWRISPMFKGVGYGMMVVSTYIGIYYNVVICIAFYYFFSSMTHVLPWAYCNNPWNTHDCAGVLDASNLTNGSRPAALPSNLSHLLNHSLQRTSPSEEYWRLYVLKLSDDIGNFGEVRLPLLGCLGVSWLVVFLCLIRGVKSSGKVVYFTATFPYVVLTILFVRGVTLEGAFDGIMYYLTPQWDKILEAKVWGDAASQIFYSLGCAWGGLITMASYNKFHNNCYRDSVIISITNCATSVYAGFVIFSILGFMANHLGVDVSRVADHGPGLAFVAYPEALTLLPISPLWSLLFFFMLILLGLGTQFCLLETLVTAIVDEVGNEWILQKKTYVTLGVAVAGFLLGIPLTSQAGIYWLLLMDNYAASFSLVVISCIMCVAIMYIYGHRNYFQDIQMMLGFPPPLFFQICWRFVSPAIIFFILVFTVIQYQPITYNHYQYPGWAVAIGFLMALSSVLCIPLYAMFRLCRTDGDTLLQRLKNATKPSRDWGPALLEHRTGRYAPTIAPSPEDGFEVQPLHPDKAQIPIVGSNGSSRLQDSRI
Procedure, shortened: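 Human choriocarcinoma JAR cells (endogenous GlyT-1) attached overnight, then pre-incubated 10 min at room temperature with compound in pH 7.4 Hepes uptake buffer containing 5 mM alanine and 0.75% DMSO. Uptake of 5 μM [14C]glycine over 3 h at 37 °C read by scintillation proximity; IC50 from four-parameter fit of nine-point curves.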

| Compound | IC50 [1] | IC50 [2] |
| --- | --- | --- |
| CCCS(=O)(=O)N1CCN(C2(CNC(=O)c3ccc(Cl)cc3OC)CCCCC2)CC1 [compound 45, 4-Chloro-2-methoxy-N-((1-(4-(propyl-sulfonyl)piperazin-1-yl)cyclohexyl)methyl) benzamide Hydrochloride] | > 75000 nM | 322 nM |
| Cn1cnc(S(=O)(=O)N2CCN(C3(CNC(=O)c4c(F)cccc4F)CCCCCC3)CC2)c1 [compound 107, 2,6-Difluoro-N-((1-(4-(1-methyl-1H-imidazol-4-ylsulfonyl)piperazin-1-yl)cycloheptyl)methyl) benzamide Hydrochloride] | > 75000 nM | 9 nM |
| Cn1cc(S(=O)(=O)N2CCN(C3(CNC(=O)c4c(F)cccc4F)CCCC3)CC2)nn1 [compound 108, 2,6-Difluoro-N-((1-(4-(1-methyl-1H-1,2,3-triazol-4-ylsulfonyl)piperazin-1-yl)cyclopentyl)methyl) benzamide Hydrochloride] | > 75000 nM | 55 nM |
| CCS(=O)(=O)N1CCN(C2(CNC(=O)c3c(Cl)cccc3Cl)CCCCCC2)CC1 [compound 88, 2,6-Dichloro-N-((1-(4-(ethylsulfonyl)piperazin-1-yl)cycloheptyl)methyl) benzamide Hydrochloride] | > 75000 nM | 195 nM |
| CCCS(=O)(=O)N1CCN(C2(CNC(=O)c3c(N)cccc3Cl)Cc3ccccc3C2)CC1 [compound 115, 2-Amino-6-chloro-N-((2-(4-(propylsulfonyl)piperazin-1-yl)-2,3-dihydro-1H-inden-2-yl)methyl)benzamide Hydrochloride] | > 75000 nM | 661 nM |
| CCCS(=O)(=O)N1CCN(C2(CNC(=O)c3c(Cl)cc(C(F)(F)F)cc3Cl)CCC(F)(F)CC2)CC1 [compound 258, 2,6-Dichloro-N-((4,4-difluoro-1-(4-(propylsulfonyl)piperazin-1-yl)cyclohexyl)methyl)-4-(trifluoromethyl) benzamide Hydrochloride] | > 75000 nM | 9 nM |
| O=C(NCC1(N2CCN(S(=O)(=O)c3cn(C(F)F)nn3)CC2)CCC(F)(F)CC1)c1ccc(C(F)(F)F)cc1Cl [compound 236, 2-Chloro-N-((1-(4-(1-(difluoromethyl)-1H-1,2,3-triazol-4-ylsulfonyl)piperazin-1-yl)-4,4-difluorocyclohexyl)methyl)-4-(trifluoromethyl) benzamide Hydrochloride] | > 75000 nM | 41 nM |
| CCCS(=O)(=O)N1CCN(C2(CNC(=O)c3c(OC)cc(C(F)(F)F)cc3C(F)(F)F)CCCCCC2)CC1 [compound 70, 2-Methoxy-N-((1-(4-(propylsulfonyl)piperazin-1-yl)cycloheptyl)methyl)-4,6-bis(trifluoromethyl) benzamide Hydrochloride] | > 75000 nM | 9 nM |
| Cn1cc(S(=O)(=O)N2CCN(C3(CNC(=O)c4ccc(Cl)cc4Cl)CCOCC3)CC2)nn1 [compound 129, 2,4-Dichloro-N-((4-(4-(1-methyl-1H-1,2,3-triazol-4-ylsulfonyl)piperazin-1-yl)tetrahydro-2H-pyran-4-yl)methyl)benzamide Hydrochloride] | > 75000 nM | 11 nM |
| Cn1cnc(S(=O)(=O)N2CCN(C3(CNC(=O)c4ccccc4OC(F)(F)F)CCC(F)(F)CC3)CC2)c1 [compound 161, N-((4,4-difluoro-1-(4-(1-methyl-1H-imidazol-4-ylsulfonyl)piperazin-1-yl)cyclohexyl)methyl)-2-(trifluoromethoxy) benzamide Hydrochloride] | > 75000 nM | 1 nM |
| Cn1cnc(S(=O)(=O)N2CCN(C3(CNC(=O)c4c(F)cc(F)cc4F)CCC(F)(F)CC3)CC2)c1 [compound 167, N-((4,4-Difluoro-1-(4-(1-methyl-1H-imidazol-4-ylsulfonyl)piperazin-1-yl)cyclohexyl)methyl)-2,4,6-trifluorobenzamide Hydrochloride] | > 75000 nM | 11 nM |
| CCCS(=O)(=O)N1CCN(C2(CNC(=O)c3c(C)cc(F)cc3OC)CCCCCC2)CC1 [compound 69, 4-Fluoro-2-methoxy-6-methyl-N-((1-(4-(propylsulfonyl)piperazin-1-yl)cycloheptyl)methyl) benzamide Hydrochloride] | > 75000 nM | 4 nM |
| Cn1cnc(S(=O)(=O)N2CCN(C3(CNC(=O)c4c(Cl)cccc4Cl)CCCCCC3)CC2)c1 [compound 106, 2,6-Dichloro-N-((1-(4-(1-methyl-1H-imidazol-4-ylsulfonyl)piperazin-1-yl)cycloheptyl)methyl) benzamide Hydrochloride] | > 75000 nM | 5 nM |

Results, then the molecule that gave them:

| IC50 [1] | IC50 [2] | Compound |
| --- | --- | --- |
| > 75000 nM | 222 nM | CCCS(=O)(=O)N1CCN(C2(CNC(=O)c3ccc(Br)cc3)CCCCC2)CC1 [compound 11, 4-Bromo-N-((1-(4-(propylsulfonyl)piperazin-1-yl)cyclohexyl)methyl) benzamide Hydrochloride] |
| > 75000 nM | 766 nM | CCCS(=O)(=O)N1CCN(C2(CNC(=O)c3cccc(OC)c3)CCCCC2)CC1 [compound 29, 3-Methoxy-N-((1-(4-(propylsulfonyl)piperazin-1-yl)cyclohexyl)methyl) benzamide Hydrochloride] |
| > 75000 nM | 23 nM | CCCS(=O)(=O)N1CCN(C2(CNC(=O)c3cc(F)c(Cl)cc3Cl)CCC(F)(F)CC2)CC1 [compound 263, 2,4-Dichloro-N-((4,4-difluoro-1-(4-(propylsulfonyl)piperazin-1-yl)cyclohexyl)methyl)-5-fluorobenzamide Hydrochloride] |
| > 75000 nM | 57 nM | COc1cccc(F)c1C(=O)NCC1(N2CCN(S(=O)(=O)CC3CC3)CC2)CCCCC1 [compound 83, N-((1-(4-(Cyclopropylmethyl-sulfonyl)piperazin-1-yl)cyclohexyl)methyl)-2-fluoro-6-methoxybenzamide Hydrochloride] |
| > 75000 nM | 48 nM | CCCS(=O)(=O)N1CCN(C2(CNC(=O)c3ccccc3C(F)(F)F)CCCCC2)CC1 [compound 50, N-((1-(4-(Propylsulfonyl)piperazin-1-yl)cyclohexyl)methyl)-2-(trifluoromethyl)benzamide Hydrochloride] |
| > 75000 nM | 16 nM | CCCS(=O)(=O)N1CCN(C2(CNC(=O)c3c(C)cccc3F)CCCCC2)CC1 [compound 49, 2-Fluoro-6-methyl-N-((1-(4-(propylsulfonyl)piperazin-1-yl)cyclohexyl)methyl) benzamide Hydrochloride] |
| > 75000 nM | 1 nM | CC(NC(=O)c1ccc(C(F)(F)F)cc1Cl)C1(N2CCN(S(=O)(=O)c3cn(C)nn3)CC2)CCC(F)(F)CC1 (racemic) [compound 222, (±)-2-Chloro-N-(1-(4,4-difluoro-1-(4-(1-methyl-1H-1,2,3-triazol-4-ylsulfonyl)piperazin-1-yl)cyclohexyl)ethyl)-4-(trifluoromethyl) benzamide Hydrochloride] |
| > 35000 nM | 118 nM | CCCS(=O)(=O)N1CCN(C2(CNC(=O)c3ccccc3C)CCCCC2)CC1 [compound 42, 2-Methyl-N-((1-(4-(propylsulfonyl)piperazin-1-yl)cyclohexyl)methyl) benzamide Hydrochloride] |
| 22700 nM | 22 nM | CCCS(=O)(=O)N1CCN(C2(CNC(=O)c3ccc(Cl)cc3Cl)CCCCC2)CC1 [compound 2, 2,4-Dichloro-N-((1-(4-(propylsulfonyl)piperazin-1-yl)cyclohexyl)methyl)benzamide Hydrochloride] |
